Reference: BindingDB's records for patent US11396516 (The General Hospital Corporation, 2022)

Biological target: T1, Cytochrome P450 1A2 (Homo sapiens, UniProt P05177)
T1 sequence (P05177 whole entry): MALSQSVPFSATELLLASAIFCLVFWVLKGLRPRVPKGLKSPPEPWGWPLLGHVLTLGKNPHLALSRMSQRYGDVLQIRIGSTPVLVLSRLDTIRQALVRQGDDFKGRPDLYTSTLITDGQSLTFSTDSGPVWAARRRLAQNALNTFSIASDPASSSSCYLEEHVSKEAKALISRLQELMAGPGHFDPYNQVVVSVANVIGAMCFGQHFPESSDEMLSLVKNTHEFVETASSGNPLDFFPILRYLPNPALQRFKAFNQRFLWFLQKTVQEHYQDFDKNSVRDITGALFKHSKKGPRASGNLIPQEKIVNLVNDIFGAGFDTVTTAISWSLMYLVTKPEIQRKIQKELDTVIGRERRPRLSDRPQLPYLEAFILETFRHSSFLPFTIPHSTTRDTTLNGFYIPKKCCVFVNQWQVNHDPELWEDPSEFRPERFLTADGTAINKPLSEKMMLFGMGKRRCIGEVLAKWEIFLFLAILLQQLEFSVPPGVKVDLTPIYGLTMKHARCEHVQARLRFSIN
Assay: Inhibition of CYP Enzyme Activity In Vitro
Procedure: The ability of the tested compounds to inhibit a panel of CYP enzymes in vitro was assessed using a series of human liver microsome assays. Half-maximal inhibitory concentration (IC50) was calculated for compounds demonstrating mean inhibition greater than 50% compared to a reference inhibitor.

- IC50: 240 nM
SMILES: COc1c2ccoc2cc2oc(C)cc(=O)c12 [US11396516, Example visnagin]
